Laboratory results as given in publication PMC9963398, “Discovery of New Quinolone-Based Diarylamides as Potent B-RAF^V600E/C-RAF Kinase Inhibitors Endowed with Promising In Vitro Anticancer Activity” (International Journal of Molecular Sciences, 2023).
Read-outs that look alike come from different tables or passages of the source.

Key:
CAKI-1 = assay: NCI-60 five-dose SRB assay; type: cell-based; details: Homo sapiens; CAKI-1, Renal cancer, five-dose test
Outline: (§1)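 Standard NCI procedure: compounds applied to the 60 human cancer cell lines, followed by SRB staining to quantify cell mass.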

HCC-2998 = assay: NCI-60 five-dose SRB assay; type: cell-based; details: Homo sapiens; HCC-2998, Colon cancer, five-dose test
Outline: as §1

HL-60(TB) = assay: NCI-60 five-dose SRB assay; type: cell-based; details: Homo sapiens, Leukemia, five-dose test
Outline: as §1

HOP-92 = assay: NCI-60 five-dose SRB assay; type: cell-based; details: Homo sapiens; HOP-92, NSCL cancer, five-dose test
Outline: as §1

HS 578T = assay: NCI-60 five-dose SRB assay; type: cell-based; details: Homo sapiens, Breast cancer, five-dose test
Outline: as §1

HT29 [1] = assay: NCI-60 five-dose SRB assay; type: cell-based; details: Homo sapiens, HT-29; HT29, Colon cancer, five-dose test
Outline: as §1

LOX IMVI = assay: NCI-60 five-dose SRB assay; type: cell-based; details: Homo sapiens, Melanoma, five-dose test
Outline: as §1

M14 = assay: NCI-60 five-dose SRB assay; type: cell-based; details: Homo sapiens; M14, Melanoma, five-dose test
Outline: as §1

MDA-MB-435 = assay: NCI-60 five-dose SRB assay; type: cell-based; details: Homo sapiens; MDA-MB-435, Melanoma, five-dose test
Outline: as §1

MOLT-4 = assay: NCI-60 five-dose SRB assay; type: cell-based; details: Homo sapiens; MOLT-4, Leukemia, five-dose test
Outline: as §1

NCI-H322M = assay: NCI-60 five-dose SRB assay; type: cell-based; details: Homo sapiens, NSCL cancer, five-dose test
Outline: as §1

NCI/ADR-RES = assay: NCI-60 five-dose SRB assay; type: cell-based; details: Homo sapiens, Ovarian cancer, five-dose test
Outline: as §1

SF-295 = assay: NCI-60 five-dose SRB assay; type: cell-based; details: Homo sapiens; SF-295, CNS cancer, five-dose test
Outline: as §1

SF-539 = assay: NCI-60 five-dose SRB assay; type: cell-based; details: Homo sapiens; SF-539, CNS cancer, five-dose test
Outline: as §1

SK-MEL-2 [2] = assay: NCI-60 five-dose SRB assay; type: cell-based; details: Homo sapiens; SK-MEL-2, Melanoma, five-dose test
Outline: as §1

SNB-19 = assay: NCI-60 five-dose SRB assay; type: cell-based; details: Homo sapiens; SNB-19, CNS cancer, five-dose test
Outline: as §1

TK-10 = assay: NCI-60 five-dose SRB assay; type: cell-based; details: Homo sapiens; TK-10, Renal cancer, five-dose test
Outline: as §1

U251 = assay: NCI-60 five-dose SRB assay; type: cell-based; details: Homo sapiens, U-251; U251, CNS cancer, five-dose test
Outline: as §1

UO-31 [3] = assay: NCI-60 five-dose SRB assay; type: cell-based; details: Homo sapiens; UO-31, Renal cancer, five-dose test
Outline: as §1

[4] = tested on: NCI-60 human cancer cell lines; assay: NCI-60 single dose (10 µM) testing; type: cell-based; details: single dose 10 µM
Method: Encouraged by the promising results in the cell-free assay, the antiproliferative activity of all final compounds was evaluated by the National Cancer Institute (NCI) in a single dose of 10 µM over a library of 60 human cancer cell lines representing nine cancer types; leukemia, non-small cell lung (NSCL), colon, central nervous system (CNS), melanoma, ovarian, renal, prostate, and breast cancer.

[5] = tested on: NCI-60 human tumor cell lines; assay: NCI-60 five-dose testing, ranges over panel or subpanel; type: cell-based
Method: The anticancer screening of target compounds over a full panel of 60 human cancer cell lines was carried out using Sulforhodamine B (SRB) assay at the National Cancer Institute (NCI), Bethesda, Maryland, USA, employing the standard protocol.

C-RAF = C-RAF (Homo sapiens, UniProt P04049); assay: HotSpot kinase assay (RBC), C-RAF; details: IC50 C-RAF
Excerpt: Reaction Biology Corporation (RBC) Kinase HotSpotSM service was utilized for cell-free biochemical kinase evaluation of the target compounds according to the reported assay protocol [46].

B-RAF^V600K = biological target: T1, B-RAF^V600K (Homo sapiens, UniProt P15056, V600K); assay: HotSpot kinase assay (RBC), B-RAF^V600K; type: biochemical; details: 10 µM ATP
T1 construct: purchased Reaction Biology Corporation (RBC), Kinase HotSpot service
Method: To gain insight into the inhibitory mode of this new array of quinolines, 18a was tested at 1 µM concentration of ATP to compare it with its IC50 at 10 µM (Table 2).

A549/ATCC = tested on: A549/ATCC; parameters: method as in PMID 32745753; details: NSCL cancer; cited from earlier work
EKVX = tested on: EKVX; parameters: method as in PMID 32745753; details: NSCL cancer; cited from earlier work
NCI-H226 = tested on: NCI-H226; parameters: method as in PMID 32745753; details: NCI-H226, NSCL cancer; cited from earlier work
NCI-H522 = tested on: NCI-H522; parameters: method as in PMID 32745753; details: NCI-H522, NSCL cancer; cited from earlier work
HT29 [6] = tested on: HT29; parameters: method as in PMID 32745753; details: HT29, Colon cancer; cited from earlier work
SNB-75 = tested on: SNB-75; parameters: method as in PMID 32745753; details: SNB-75, CNS cancer; cited from earlier work
MALME-3M = tested on: MALME-3M; parameters: method as in PMID 32745753; details: Melanoma; cited from earlier work
SK-MEL-2 [7] = tested on: SK-MEL-2; parameters: method as in PMID 32745753; details: SK-MEL-2, Melanoma; cited from earlier work
SK-MEL-5 = tested on: SK-MEL-5; parameters: method as in PMID 32745753; details: SK-MEL-5, Melanoma; cited from earlier work
OVCAR-8 = tested on: OVCAR-8; parameters: method as in PMID 32745753; details: OVCAR-8, Ovarian cancer; cited from earlier work
UO-31 [8] = tested on: UO-31; parameters: method as in PMID 32745753; details: UO-31, Renal cancer; cited from earlier work
[9] = MALME-3M, MDA-MB-435, SK-MEL-2, and UACC-62
[10] = melanoma LOX IMVI, SK-MEL-28, and SK-MEL-5
[11] = Homo sapiens, MOLT-4, all leukemia cell lines, except MOLT-4
[12] = 10 µM ATP, 10-dose singlicate IC50 mode
[13] = Homo sapiens, colon cancer cell lines, range over lines

Sequence of C-RAF (P04049 whole entry): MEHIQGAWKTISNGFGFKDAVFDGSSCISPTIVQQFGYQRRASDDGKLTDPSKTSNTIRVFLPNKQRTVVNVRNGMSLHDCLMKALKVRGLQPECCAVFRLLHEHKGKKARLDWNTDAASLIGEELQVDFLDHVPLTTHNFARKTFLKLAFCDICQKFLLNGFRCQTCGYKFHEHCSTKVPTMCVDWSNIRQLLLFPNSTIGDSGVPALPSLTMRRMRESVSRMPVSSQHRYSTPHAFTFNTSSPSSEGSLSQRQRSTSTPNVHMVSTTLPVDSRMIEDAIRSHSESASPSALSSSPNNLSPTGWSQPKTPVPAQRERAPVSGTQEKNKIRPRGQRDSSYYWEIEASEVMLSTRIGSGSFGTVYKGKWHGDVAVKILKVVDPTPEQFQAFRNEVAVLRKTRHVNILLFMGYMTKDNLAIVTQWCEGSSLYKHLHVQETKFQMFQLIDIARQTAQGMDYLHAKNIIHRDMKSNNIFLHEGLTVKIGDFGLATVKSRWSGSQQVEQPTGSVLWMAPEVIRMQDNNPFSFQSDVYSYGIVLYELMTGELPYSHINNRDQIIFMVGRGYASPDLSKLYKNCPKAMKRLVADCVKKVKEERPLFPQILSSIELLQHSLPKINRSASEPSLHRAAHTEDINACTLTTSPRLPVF
T1 sequence (P15056 whole entry V600K): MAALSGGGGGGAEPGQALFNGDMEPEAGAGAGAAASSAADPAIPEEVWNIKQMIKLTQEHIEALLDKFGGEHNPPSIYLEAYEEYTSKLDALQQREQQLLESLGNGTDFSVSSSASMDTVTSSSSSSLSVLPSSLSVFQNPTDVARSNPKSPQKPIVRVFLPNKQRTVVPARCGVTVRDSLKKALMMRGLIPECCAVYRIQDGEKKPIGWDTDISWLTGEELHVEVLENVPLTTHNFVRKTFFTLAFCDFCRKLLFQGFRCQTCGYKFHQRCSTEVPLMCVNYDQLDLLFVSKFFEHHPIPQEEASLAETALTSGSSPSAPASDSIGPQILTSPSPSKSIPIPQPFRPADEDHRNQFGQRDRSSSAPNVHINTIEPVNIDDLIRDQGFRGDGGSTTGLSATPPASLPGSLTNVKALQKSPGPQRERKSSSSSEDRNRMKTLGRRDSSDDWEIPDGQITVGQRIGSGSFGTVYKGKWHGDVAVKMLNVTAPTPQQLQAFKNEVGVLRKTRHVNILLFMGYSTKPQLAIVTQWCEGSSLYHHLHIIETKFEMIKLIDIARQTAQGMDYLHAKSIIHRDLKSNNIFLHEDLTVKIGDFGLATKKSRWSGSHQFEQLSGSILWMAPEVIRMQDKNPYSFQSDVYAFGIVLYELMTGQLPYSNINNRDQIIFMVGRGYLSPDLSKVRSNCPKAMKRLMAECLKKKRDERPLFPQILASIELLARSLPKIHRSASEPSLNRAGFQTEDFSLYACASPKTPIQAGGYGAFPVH

SMILES	GI50 (CAKI-1) [µM]	GI50 (HCC-2998) [µM]	GI50 (HL-60(TB)) [µM]	GI50 (HOP-92) [µM]	GI50 (HS 578T) [µM]	GI50 (HT29 [1]) [µM]	GI50 (LOX IMVI) [µM]	GI50 (M14) [µM]	GI50 (MDA-MB-435) [µM]	GI50 (MOLT-4) [µM]	GI50 (NCI-H322M) [µM]	GI50 (SF-295) [µM]	GI50 (SF-539) [µM]	GI50 (SK-MEL-2 [2]) [µM]	GI50 (SNB-19) [µM]	GI50 (TK-10) [µM]	GI50 (U251) [µM]	GI50 (UO-31 [3]) [µM]	growth percent [4, 9]	growth percent [4, 10]	other results
CN1CCN(Cc2ccc(C(=O)Nc3cccc(Nc4ccc5c(O)cccc5n4)c3)cc2C(F)(F)F)CC1 [Compound 17a, N-(3-((5-hydroxyquinolin-2-yl)amino)phenyl)-4-((4-methylpiperazin-1-yl)methyl)-3-(trifluoromethyl)benzamide]	2.13	1.89	2.47	1.32	2.96	2.06	1.65	2.21	1.78	1.86	3.23	1.65	1.67	1.92	2.39	3.36	2.38	1.99	less than -90	−100	GI50 (NCI/ADR-RES): 3.45 µM; GI50 [5, 11]: > 2 µM; IC50 (C-RAF; [12]): 0.095 ± 0.0173 µM
CN1CCCN(Cc2ccc(C(=O)Nc3cccc(Nc4ccc5c(O)cccc5n4)c3)cc2C(F)(F)F)CC1 [Compound 17b, N-(3-((5-hydroxyquinolin-2-yl)amino)phenyl)-4-((4-methyl-1,4-diazepan-1-yl)methyl)-3-(trifluoromethyl)benzamide]	1.79	1.8	2.35	1.64	1.93	1.92	1.63	1.89	1.78	2.11	3.27	1.67	1.7	1.81	2.03	2.8	2.07	2.04	less than -90	−100	IC50 (B-RAF^V600K): 0.0616 ± 0.001 µM; GI50 (NCI/ADR-RES): 6.43 µM; growth percent ([4]; melanoma SK-MEL-29, SK-MEL-5, and UACC-62): under −90%; GI50 [5, 11]: > 2 µM; GI50 [5, 13]: < 2 µM; GI50 ([5]; Homo sapiens, melanoma cell lines, range over lines): 1.6 to 1.89 µM; GI50 ([5]; melanoma cell lines, range over lines): < 2 µM; IC50 (C-RAF; [12]): 0.0653 ± 0.0006 µM
CN1CCN(Cc2ccc(C(=O)Nc3cccc(Nc4ccc5cc(O)ccc5n4)c3)cc2C(F)(F)F)CC1 [Compound 18a, N-(3-((6-hydroxyquinolin-2-yl)amino)phenyl)-4-((4-methylpiperazin-1-yl)methyl)-3-(trifluoromethyl)benzamide]	11.9	2.39	2.58	3.39	4.17	3.37	1.73	9.06	8.53	3.52	11	2.33	1.98	13.5	13.8	21.4	2.17	13.4	less than -90	−100	IC50 (B-RAF^V600K): < 0.00508 µM; GI50 ([5]; Homo sapiens, LOX IMVI, MALME-3M, and SK-MEL-28): 1.59 to 1.79 µM; GI50 ([5]; Homo sapiens, NSCL cell lines, range over lines): 3.39 to 17.8 µM; GI50 [5, 13]: 2.09 to 18.5 µM; GI50 increase relative to 17a ([5]; other melanoma cell lines): 1.37–9.11 fold; IC50 (C-RAF; 1 µM ATP): 0.0293 ± 0.009 µM; IC50 (C-RAF; [12]): 0.0676 ± 0.0051 µM
CNC(=O)c1cc(Oc2ccc(NC(=O)Nc3ccc(Cl)c(C(F)(F)F)c3)cc2)ccn1 [Sorafenib]																					GI50 (A549/ATCC): 2.9 µM; GI50 (EKVX): 2.5 µM; GI50 (NCI-H226): 1.9 µM; GI50 (NCI-H522): 2.1 µM; GI50 (HT29 [6]): 2.2 µM; GI50 (SNB-75): 3 µM; GI50 (MALME-3M): 2.2 µM; GI50 (SK-MEL-2 [7]): 1.8 µM; GI50 (SK-MEL-5): 1.5 µM; GI50 (OVCAR-8): 3 µM; GI50 (UO-31 [8]): 2.6 µM
